Columns and labels:
Conditions in all cases: Test compound concentration 10.0 uM
[1] = target: T1, Alpha-1A adrenergic receptor (Homo sapiens) (UniProt P35348); assay: SafetyScreen: alpha1A Human Adrenoceptor GPCR Binding Antagonist Radioligand LeadHunter Assay, catalogue number: 2338
T1 sequence (whole entry): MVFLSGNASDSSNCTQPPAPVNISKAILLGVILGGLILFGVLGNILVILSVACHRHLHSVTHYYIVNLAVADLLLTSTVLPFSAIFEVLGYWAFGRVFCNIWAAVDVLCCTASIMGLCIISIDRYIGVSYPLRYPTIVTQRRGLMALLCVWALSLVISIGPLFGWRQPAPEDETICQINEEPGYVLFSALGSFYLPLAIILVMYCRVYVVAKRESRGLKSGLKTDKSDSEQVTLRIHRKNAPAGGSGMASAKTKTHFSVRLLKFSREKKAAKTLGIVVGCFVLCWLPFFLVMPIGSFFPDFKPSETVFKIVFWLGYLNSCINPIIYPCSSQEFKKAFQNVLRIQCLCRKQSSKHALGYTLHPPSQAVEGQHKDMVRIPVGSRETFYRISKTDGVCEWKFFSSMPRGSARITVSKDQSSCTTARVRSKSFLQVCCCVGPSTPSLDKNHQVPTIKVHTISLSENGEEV

[2] = target: T2, 5-hydroxytryptamine receptor 1A (Homo sapiens) (UniProt P08908); assay: SafetyScreen: 5-HT1A Human Serotonin GPCR Binding Agonist Radioligand LeadHunter Assay, catalogue number: 131
T2 sequence (whole entry): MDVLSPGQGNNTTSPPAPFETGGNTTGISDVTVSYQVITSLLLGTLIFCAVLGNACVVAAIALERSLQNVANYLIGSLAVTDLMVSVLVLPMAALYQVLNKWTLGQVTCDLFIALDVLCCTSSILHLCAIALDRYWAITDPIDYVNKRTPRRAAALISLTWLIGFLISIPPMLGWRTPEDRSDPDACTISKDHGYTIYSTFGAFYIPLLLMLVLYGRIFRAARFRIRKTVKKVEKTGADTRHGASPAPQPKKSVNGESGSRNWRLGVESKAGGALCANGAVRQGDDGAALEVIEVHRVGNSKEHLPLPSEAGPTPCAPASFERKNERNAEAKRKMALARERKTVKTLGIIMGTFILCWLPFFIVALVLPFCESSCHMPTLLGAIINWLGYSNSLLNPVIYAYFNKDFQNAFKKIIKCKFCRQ

[3] = target: D(2) dopamine receptor (Homo sapiens) (UniProt P14416); assay: SafetyScreen: D2S Human Dopamine GPCR Binding Agonist Radioligand LeadHunter Assay, catalogue number: 1322
Sequence of D(2) dopamine receptor (Homo sapiens) (P14416 whole entry): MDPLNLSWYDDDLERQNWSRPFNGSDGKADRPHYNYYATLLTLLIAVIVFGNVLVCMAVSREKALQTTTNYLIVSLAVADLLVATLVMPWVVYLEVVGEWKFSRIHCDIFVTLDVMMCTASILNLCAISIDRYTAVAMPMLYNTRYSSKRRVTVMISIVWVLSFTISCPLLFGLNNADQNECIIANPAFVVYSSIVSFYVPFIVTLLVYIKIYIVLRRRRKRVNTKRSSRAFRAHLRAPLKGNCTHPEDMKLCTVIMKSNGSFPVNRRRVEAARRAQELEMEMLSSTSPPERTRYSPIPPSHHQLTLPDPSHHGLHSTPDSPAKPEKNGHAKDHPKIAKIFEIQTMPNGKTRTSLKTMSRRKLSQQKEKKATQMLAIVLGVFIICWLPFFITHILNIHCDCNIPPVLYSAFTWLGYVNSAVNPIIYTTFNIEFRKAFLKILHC

[4] = target: Acetylcholinesterase (Homo sapiens) (UniProt P22303); assay: SafetyScreen: Acetylcholinesterase Human Enzymatic LeadHunter Assay, catalogue number: 363; type: functional
Sequence of Acetylcholinesterase (Homo sapiens) (P22303 whole entry): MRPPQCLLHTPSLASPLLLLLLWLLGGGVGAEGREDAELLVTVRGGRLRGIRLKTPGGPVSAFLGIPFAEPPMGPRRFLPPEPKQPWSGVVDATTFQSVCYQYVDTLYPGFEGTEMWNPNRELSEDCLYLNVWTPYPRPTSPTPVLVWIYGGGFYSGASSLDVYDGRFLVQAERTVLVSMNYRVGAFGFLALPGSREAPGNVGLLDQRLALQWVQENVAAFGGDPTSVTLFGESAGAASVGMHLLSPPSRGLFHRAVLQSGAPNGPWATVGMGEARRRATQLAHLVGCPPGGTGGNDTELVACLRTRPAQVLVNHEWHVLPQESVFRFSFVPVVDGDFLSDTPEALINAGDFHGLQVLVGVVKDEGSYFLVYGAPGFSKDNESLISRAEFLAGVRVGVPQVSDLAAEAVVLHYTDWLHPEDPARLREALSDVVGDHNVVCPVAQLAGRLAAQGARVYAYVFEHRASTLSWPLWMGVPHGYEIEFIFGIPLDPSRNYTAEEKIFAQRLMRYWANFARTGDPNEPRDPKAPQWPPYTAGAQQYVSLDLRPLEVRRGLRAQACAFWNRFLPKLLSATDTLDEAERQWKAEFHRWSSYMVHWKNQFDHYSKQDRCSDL

[5] = target: D(1A) dopamine receptor (Homo sapiens) (UniProt P21728); assay: SafetyScreen: D1 Human Dopamine GPCR Binding Antagonist Radioligand LeadHunter Assay, catalogue number: 44
Sequence of D(1A) dopamine receptor (Homo sapiens) (P21728 whole entry): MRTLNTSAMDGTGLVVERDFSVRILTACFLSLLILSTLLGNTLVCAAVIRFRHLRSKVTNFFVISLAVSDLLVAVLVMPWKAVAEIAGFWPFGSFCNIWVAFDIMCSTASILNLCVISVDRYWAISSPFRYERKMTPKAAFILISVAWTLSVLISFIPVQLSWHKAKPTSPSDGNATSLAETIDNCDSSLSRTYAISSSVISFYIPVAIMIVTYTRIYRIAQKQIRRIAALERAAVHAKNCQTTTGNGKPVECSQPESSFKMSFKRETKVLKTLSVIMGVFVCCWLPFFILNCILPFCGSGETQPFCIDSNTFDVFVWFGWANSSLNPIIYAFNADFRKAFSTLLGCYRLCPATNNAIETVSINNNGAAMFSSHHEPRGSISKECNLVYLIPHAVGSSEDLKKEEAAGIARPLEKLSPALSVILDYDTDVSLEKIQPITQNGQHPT

[6] = target: Mu-type opioid receptor (Homo sapiens) (UniProt P35372); assay: SafetyScreen: mu (MOP) Human Opioid GPCR Binding Agonist Radioligand LeadHunter Assay, catalogue number: 118
Sequence of Mu-type opioid receptor (Homo sapiens) (P35372 whole entry): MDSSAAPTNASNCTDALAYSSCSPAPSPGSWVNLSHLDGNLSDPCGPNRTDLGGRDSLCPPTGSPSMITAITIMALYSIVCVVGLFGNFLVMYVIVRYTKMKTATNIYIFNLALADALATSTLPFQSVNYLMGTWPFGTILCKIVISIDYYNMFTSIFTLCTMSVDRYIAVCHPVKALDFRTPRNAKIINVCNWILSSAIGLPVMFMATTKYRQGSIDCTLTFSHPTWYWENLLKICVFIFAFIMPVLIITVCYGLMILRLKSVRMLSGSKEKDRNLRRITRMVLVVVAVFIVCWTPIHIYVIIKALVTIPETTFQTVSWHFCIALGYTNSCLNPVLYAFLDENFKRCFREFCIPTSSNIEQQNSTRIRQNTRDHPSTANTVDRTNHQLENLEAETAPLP

[7] = target: Sodium-dependent dopamine transporter (Homo sapiens) (UniProt Q01959); assay: SafetyScreen: DAT Human Dopamine Transporter Binding Antagonist Radioligand LeadHunter Assay, catalogue number: 52
Sequence of Sodium-dependent dopamine transporter (Homo sapiens) (Q01959 whole entry): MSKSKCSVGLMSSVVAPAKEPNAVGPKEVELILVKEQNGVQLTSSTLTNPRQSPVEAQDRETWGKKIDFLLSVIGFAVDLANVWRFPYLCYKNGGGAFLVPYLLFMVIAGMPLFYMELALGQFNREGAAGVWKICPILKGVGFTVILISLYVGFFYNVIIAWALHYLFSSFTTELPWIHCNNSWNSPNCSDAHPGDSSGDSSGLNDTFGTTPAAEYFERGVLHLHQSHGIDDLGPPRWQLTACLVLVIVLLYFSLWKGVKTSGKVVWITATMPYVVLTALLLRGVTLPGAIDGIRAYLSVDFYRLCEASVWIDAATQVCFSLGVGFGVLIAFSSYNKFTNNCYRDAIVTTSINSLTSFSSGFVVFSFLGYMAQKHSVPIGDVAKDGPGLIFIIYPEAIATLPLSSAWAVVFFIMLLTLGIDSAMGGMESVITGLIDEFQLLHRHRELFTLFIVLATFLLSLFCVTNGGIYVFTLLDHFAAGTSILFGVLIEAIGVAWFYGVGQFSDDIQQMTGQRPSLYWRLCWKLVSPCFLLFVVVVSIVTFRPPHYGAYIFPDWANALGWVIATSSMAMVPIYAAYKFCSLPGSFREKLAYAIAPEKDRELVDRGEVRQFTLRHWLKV

[8] = target: Prostaglandin G/H synthase 1 (Homo sapiens) (UniProt P23219); assay: SafetyScreen: COX1 Human Cyclooxygenase Enzymatic LeadHunter Assay, catalogue number: 4173; type: functional
Sequence of Prostaglandin G/H synthase 1 (Homo sapiens) (P23219 whole entry): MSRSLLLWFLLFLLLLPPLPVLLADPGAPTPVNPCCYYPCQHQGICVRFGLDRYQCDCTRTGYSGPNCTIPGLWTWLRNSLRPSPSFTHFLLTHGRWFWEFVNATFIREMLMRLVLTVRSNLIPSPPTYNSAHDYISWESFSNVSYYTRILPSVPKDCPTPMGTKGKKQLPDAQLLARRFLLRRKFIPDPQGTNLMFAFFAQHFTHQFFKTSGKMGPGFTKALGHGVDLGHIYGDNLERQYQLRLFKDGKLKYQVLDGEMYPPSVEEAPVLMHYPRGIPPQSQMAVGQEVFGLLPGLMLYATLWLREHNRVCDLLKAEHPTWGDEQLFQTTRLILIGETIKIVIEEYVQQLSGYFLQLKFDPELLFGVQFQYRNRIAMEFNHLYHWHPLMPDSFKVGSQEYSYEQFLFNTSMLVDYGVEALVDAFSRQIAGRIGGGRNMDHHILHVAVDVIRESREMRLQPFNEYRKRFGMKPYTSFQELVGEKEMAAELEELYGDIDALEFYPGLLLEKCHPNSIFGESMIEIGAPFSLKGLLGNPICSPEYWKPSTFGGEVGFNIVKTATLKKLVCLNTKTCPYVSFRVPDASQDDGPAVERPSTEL

[9] = target: T3, 5-hydroxytryptamine receptor 3A (Homo sapiens) (UniProt P46098); assay: SafetyScreen: 5-HT3 Human Serotonin Ion Channel Binding Antagonist Radioligand LeadHunter Assay, catalogue number: 411
T3 sequence (whole entry): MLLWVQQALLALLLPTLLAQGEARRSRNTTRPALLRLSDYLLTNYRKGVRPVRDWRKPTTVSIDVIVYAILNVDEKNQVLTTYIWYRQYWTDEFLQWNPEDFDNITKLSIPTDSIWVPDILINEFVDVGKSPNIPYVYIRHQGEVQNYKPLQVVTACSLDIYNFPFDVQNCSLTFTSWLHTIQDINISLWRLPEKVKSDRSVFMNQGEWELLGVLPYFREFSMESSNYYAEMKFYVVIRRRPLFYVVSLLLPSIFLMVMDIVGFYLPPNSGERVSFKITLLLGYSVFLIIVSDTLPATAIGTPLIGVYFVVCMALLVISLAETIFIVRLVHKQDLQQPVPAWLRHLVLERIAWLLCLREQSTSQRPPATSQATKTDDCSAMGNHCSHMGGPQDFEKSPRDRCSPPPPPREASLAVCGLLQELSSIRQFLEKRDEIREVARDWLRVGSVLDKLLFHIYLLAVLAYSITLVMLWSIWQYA

[10] = target: Histamine H1 receptor (Homo sapiens) (UniProt P35367); assay: SafetyScreen: H1 Human Histamine GPCR Binding Antagonist Radioligand LeadHunter Assay, catalogue number: 870
Sequence of Histamine H1 receptor (Homo sapiens) (P35367 whole entry): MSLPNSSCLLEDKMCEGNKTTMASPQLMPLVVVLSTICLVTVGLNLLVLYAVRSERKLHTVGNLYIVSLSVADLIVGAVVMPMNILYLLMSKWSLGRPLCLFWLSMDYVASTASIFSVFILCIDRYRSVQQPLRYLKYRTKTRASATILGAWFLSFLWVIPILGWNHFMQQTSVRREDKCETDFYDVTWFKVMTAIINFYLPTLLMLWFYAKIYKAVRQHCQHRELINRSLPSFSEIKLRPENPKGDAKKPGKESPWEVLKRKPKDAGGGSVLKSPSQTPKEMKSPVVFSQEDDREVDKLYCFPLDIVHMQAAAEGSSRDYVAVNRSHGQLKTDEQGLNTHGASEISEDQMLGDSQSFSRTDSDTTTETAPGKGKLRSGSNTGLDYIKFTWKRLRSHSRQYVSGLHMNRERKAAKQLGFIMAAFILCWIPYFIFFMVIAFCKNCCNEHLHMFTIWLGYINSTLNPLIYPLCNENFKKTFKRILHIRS

[11] = target: Cannabinoid receptor 1 (Homo sapiens) (UniProt P21554); assay: SafetyScreen: CB1 Human Cannabinoid GPCR Binding Agonist Radioligand LeadHunter Assay, catalogue number: 4708
Sequence of Cannabinoid receptor 1 (Homo sapiens) (P21554 whole entry): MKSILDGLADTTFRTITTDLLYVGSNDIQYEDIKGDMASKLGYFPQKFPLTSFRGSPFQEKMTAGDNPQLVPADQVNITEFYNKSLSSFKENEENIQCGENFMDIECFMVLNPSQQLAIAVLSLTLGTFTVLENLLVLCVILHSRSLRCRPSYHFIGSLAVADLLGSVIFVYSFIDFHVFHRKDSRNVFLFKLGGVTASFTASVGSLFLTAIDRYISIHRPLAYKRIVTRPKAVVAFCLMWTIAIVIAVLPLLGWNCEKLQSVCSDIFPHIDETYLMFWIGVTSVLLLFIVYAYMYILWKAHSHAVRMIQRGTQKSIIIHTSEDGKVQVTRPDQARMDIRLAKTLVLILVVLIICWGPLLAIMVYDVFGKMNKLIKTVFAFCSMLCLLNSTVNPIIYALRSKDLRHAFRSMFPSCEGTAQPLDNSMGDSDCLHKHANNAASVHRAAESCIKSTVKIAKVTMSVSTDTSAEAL

[12] = target: Vasopressin V1a receptor (Homo sapiens) (UniProt P37288); assay: SafetyScreen: V1A Human Vasopressin / Oxytocin GPCR Binding Agonist Radioligand LeadHunter Assay, catalogue number: 159
Sequence of Vasopressin V1a receptor (Homo sapiens) (P37288 whole entry, looked up): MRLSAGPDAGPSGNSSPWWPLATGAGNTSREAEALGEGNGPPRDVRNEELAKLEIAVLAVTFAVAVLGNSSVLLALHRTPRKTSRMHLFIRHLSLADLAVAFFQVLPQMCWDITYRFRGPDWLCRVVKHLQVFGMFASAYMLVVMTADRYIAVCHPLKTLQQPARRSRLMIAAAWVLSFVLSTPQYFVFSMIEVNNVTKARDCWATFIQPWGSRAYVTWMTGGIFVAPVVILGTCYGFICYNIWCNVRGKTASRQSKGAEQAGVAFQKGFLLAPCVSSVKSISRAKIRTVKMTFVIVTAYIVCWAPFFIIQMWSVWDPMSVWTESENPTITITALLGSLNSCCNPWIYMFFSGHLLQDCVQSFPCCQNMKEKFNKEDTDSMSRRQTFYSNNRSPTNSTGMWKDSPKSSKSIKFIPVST

[13] = target: T4, Muscarinic acetylcholine receptor M1 (Homo sapiens) (UniProt P11229); assay: SafetyScreen: M1 Human Acetylcholine (Muscarinic) GPCR Binding Antagonist Radioligand LeadHunter Assay, catalogue number: 91
T4 sequence (whole entry): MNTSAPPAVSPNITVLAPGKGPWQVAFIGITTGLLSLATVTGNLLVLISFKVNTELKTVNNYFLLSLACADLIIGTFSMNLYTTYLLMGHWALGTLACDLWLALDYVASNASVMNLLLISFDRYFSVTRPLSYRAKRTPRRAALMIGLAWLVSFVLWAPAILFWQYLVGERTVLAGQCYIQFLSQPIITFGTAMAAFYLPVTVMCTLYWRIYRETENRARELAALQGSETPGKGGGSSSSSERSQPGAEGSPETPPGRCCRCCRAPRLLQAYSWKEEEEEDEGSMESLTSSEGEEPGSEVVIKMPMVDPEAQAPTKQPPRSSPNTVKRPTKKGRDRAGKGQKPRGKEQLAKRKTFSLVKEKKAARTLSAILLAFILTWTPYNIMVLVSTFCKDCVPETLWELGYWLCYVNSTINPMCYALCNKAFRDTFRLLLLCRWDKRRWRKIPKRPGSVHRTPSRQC

[14] = target: Delta-type opioid receptor (Homo sapiens) (UniProt P41143); assay: SafetyScreen: delta (DOP) Human Opioid GPCR Binding Agonist Radioligand LeadHunter Assay, catalogue number: 114
Sequence of Delta-type opioid receptor (Homo sapiens) (P41143 whole entry): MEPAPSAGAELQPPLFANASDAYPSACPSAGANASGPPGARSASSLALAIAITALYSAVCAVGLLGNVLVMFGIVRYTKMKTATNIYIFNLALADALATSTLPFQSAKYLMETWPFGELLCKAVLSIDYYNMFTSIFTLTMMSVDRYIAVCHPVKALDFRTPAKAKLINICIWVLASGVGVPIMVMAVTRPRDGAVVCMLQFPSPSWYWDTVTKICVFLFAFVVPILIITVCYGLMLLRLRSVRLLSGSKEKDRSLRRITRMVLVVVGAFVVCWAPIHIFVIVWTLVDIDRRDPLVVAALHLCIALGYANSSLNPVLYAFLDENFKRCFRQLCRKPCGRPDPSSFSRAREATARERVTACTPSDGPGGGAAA

CC(C)[C@@H](Nc1ncnc2[nH]c(C(=O)N[C@@H]3CCN(C)C3)cc12)c1ccc2c(c1)S(=O)(=O)CCC2
inhibition [1]: 38%
inhibition [2]: 14%
inhibition [3]: -7%
inhibition [4]: 28%
inhibition [5]: -3%
inhibition [6]: 7%
inhibition [7]: 22%
inhibition [8]: 44%
inhibition [9]: 2%
inhibition [10]: 2%
inhibition [11]: -10%
inhibition [12]: 6%
inhibition [13]: 17%

Cc1nn(C)cc1-c1cc2c(N[C@H](c3ccc4c(c3)S(=O)(=O)CCC4)C(C)C)ncnc2[nH]1
inhibition [1]: 8%
inhibition [2]: 10%
inhibition [4]: 13%
inhibition [5]: 3%
inhibition [6]: 28%
inhibition [7]: 13%
inhibition [14]: 16%
inhibition [9]: 6%
inhibition [10]: 0%
inhibition [11]: 0%
inhibition [12]: 14%
inhibition [13]: 11%

CC(C)[C@@H](Nc1ncnc2[nH]c(-c3cnn(C)c3C#N)cc12)c1ccc2c(n1)OCCO2
inhibition [1]: 11%
inhibition [2]: 22%
inhibition [3]: 3%
inhibition [4]: 22%
inhibition [5]: 10%
inhibition [6]: 77%
inhibition [7]: 30%
inhibition [14]: 71%
inhibition [9]: 4%
inhibition [10]: 0%
inhibition [11]: 14%
inhibition [12]: 20%
inhibition [13]: 8%

Cn1ncc(-c2cc3c(N[C@@H](c4ccc5c(n4)OCCO5)C(C)(C)C)ncnc3[nH]2)c1C#N
inhibition [1]: 54%
inhibition [2]: 15%
inhibition [3]: 13%
inhibition [4]: 14%
inhibition [5]: 9%
inhibition [6]: 28%
inhibition [7]: 50%
inhibition [14]: 15%
inhibition [9]: 3%
inhibition [10]: 7%
inhibition [11]: 33%
inhibition [12]: 57%
inhibition [13]: 13%

CNCc1cc(-c2cc3c(N[C@@H](c4ccc5c(c4)S(=O)(=O)CCC5)C(C)C)ncnc3[nH]2)co1
inhibition [1]: 50%
inhibition [2]: 6%
inhibition [3]: -9%
inhibition [4]: 10%
inhibition [5]: 14%
inhibition [6]: -5%
inhibition [7]: 50%
inhibition [8]: -6%
inhibition [14]: 53%
inhibition [9]: 0%
inhibition [10]: -3%
inhibition [11]: 3%
inhibition [12]: 13%
inhibition [13]: 47%

COc1ccc([C@H](Cc2nnn[nH]2)NC(=O)c2ncnc3[nH]ccc23)cc1
inhibition [1]: -7%
inhibition [2]: 5%
inhibition [3]: -4%
inhibition [4]: 11%
inhibition [6]: -3%
inhibition [7]: 7%
inhibition [8]: 17%
inhibition [9]: 6%
inhibition [10]: -4%
inhibition [11]: -8%
inhibition [12]: 5%
inhibition [13]: -4%

C[C@H](C(=O)O)[C@@H](NC(=O)c1ncnc2[nH]ccc12)c1ccc(Br)cc1
inhibition [1]: -8%
inhibition [2]: 2%
inhibition [3]: -1%
inhibition [4]: 12%
inhibition [5]: -8%
inhibition [6]: -10%
inhibition [7]: 4%
inhibition [8]: 14%
inhibition [9]: 2%
inhibition [10]: -8%
inhibition [12]: 62%
inhibition [13]: -1%

CNC(=O)Cn1cc(-c2cc3c(N[C@@H](c4ccc5c(c4)S(=O)(=O)CCC5)C(C)C)ncnc3[nH]2)cn1
inhibition [1]: 11%
inhibition [2]: 13%
inhibition [4]: 13%
inhibition [5]: 1%
inhibition [6]: 3%
inhibition [7]: 1%
inhibition [8]: -8%
inhibition [14]: 7%
inhibition [9]: 5%
inhibition [10]: -5%
inhibition [11]: -10%
inhibition [12]: 15%
inhibition [13]: 9%

CC(C)[C@H](Nc1ncnc2[nH]ccc12)c1ccc2c(c1)S(=O)(=O)CCC2
inhibition [1]: -2%
inhibition [2]: 12%
inhibition [4]: 12%
inhibition [5]: -4%
inhibition [6]: 8%
inhibition [7]: 27%
inhibition [8]: 85%
inhibition [14]: 30%
inhibition [9]: 8%
inhibition [10]: -3%
inhibition [12]: 6%
inhibition [13]: 19%

CC(C)[C@H](Nc1ncnc2[nH]c(-c3cnn(C)c3C#N)cc12)c1ccc2c(n1)OCCO2
inhibition [1]: 34%
inhibition [2]: 43%
inhibition [3]: -7%
inhibition [4]: 15%
inhibition [5]: 27%
inhibition [6]: 15%
inhibition [7]: 29%
inhibition [14]: 58%
inhibition [9]: 6%
inhibition [10]: 5%
inhibition [11]: 46%
inhibition [12]: 27%
inhibition [13]: 7%

From ChEMBL document CHEMBL5442334, “ASAP - In vitro safety pharmacology profile” (2024)
